Laboratory results as given in US20250163057A1, “DCN-1 MODULATING COMPOUNDS AND METHODS OF USE THEREOF” (Cellarity, Inc., priority 2023, published 2025).
Read-outs that look alike come from different tables or passages of the source.

Experiments:
[1] = tested on: fetal hemoglobin gene HBG1; experiment: HBG1 Nanostring Assay in CD34+ HSPC erythroid differentiation culture; assay type: cell-based, human; conditions: for EC50: HBG1 induction, Day10 of erythroid differentiation; for Nanostring Ymax obs (%): relative to a control compound (C1)
Description: A Nanostring Assay was performed to evaluate the ability of the compounds to induce expression of the fetal hemoglobin gene HBG1 in cells. The data are shown as EC50, with stronger inducers having a lower EC50 value and higher YMax.
Forty eight hours later (day −2), the cells were passaged at a density of 200,000 cells/ml (100 ul/well in 96well culture plate) in complete expantion media. The cells were plated at 200,000 cells/ml on day 0 and day 3, 400,000 cells/ml on day 5 in phase 1 erythroid differentiation containing StemSpan with 2.5 U/mL of EPO (R&D systems, 287-TC-500), 0.5 mg/mL of Holo-Transferrin (Sigma, T0665-500MG), 1× Glutamine (Gluta-Max) (Gibco, 35050-061), 5 μL/mL Lipid Mixture (Sigma, L0288-100ML), 50 ng/mL SCF (R&D Systems, 255-SV-050), 10 ng/mL IL-3 (R&D Systems, 203-IL010) and 10 ng/mL Insulin (Sigma, I9278-5ML) all 200 μl per well in 96 well culture plate. Cells were then passaged at 500,000 cells/ml and 200 μl per well on day 7 in phase 2 Erythroid differentiation (Phase 1 erythroid differentiation removing IL-3) until collection day (Day10). The culture conditions were used for both control DMSO as well as experimental treatments.
For all cell pasagings, cells were centrifuged at 300 g for 8 minutes at room temperature and cell number were normalized by MANTIS and Integra VIAFLO 384. All the compounds are diluted in DMSO and added to complete media by Formulatrix FAST and mixed starting from day −2. Cells were counted by Luna cell counter with AOPI Staining Solution (Nexcelom Bioscience, CS2-0106-25 mL) on day-2. Cells were counted by BD FACSCelesta Flow Cytometer with CountBright™ Plus Absolute Counting Beads (Thermal Fisher Scientific, C36995) and SYTOX AADvanced™ Ready Flow™ Reagent (Invitrogen, R37173) for other passages. Cells were cultured at 37° C. and 5% CO2. DMSO concentration was kept at 0.1% to minimize any effects to the cells by the vehicle. […] Compound plates were kept at room temperature to protect from light to avoid multiple freeze and thaw cycle.
On the collection day (Day10), 100K cells were collected and stored at −80° C. For direct hybridization for Nanostring, 100K cell pellet was lyzed in 25 μL of RLT (QIAGEN, 79216) with 1×β-Mercaptoethanol (Gibco, 21985-023) and shaked at 300-500 RPM for 5 minutes at room temperature. Cell lysate was stored in −80° C. after lysis.
All hybridizations were done in a total volume of 15 μL (3 μL of RNA lysate added to master mix of 12 μL probe A/B, capture probe/reporter probes, proteinase K and attenuation oligos suspended in hybridization buffer). Samples were hybridized at 67° C. for 22 hr. Following hybridization, the tripartide complexes were purified, immobilized by nCounter Prep Station and imaged by Digital Analyzer (nCounter MAX/FLEX Analysis System), to generate digital counts of barcodes corresponding to each target in the multiplexed reaction. Labeled barcodes obtained from unamplified extracts were counted at 555 images or field of view (FOV). The barcode counts for each sample were recorded in Reporter Code Count (RCC) files that are imported into nSolver analysis software (provided with CodeSet by NS) for quality control evaluation.
The quality control (QC) metric included limit of detection QC by checking for wells with less than 100 total counts for positive controls.
Hybridization signals were normalized against the ERCC positive controls and CodeSet Content (housekeeping gene). Briefly, this involved first calculating a sample-specific scaling factor by calculating arithmetic mean of geomeans of all ERCC positive controls with counts more than zero in all samples. Then this arithmetic mean was divided by the geometric mean of each lane to generate a lane-specific normalization factor. All negative controls and target-specific signal values were then normalized by multiplying counts values with their sample-specific scaling factor. The acceptable range for scaling factors is 0.3-3.0. […]

[2] = tested on: Cullin-3 (CUL3) neddylation; experiment: AlphaLISA assay for Cullin-3 (CUL3) neddylation in TF 1 cells; assay type: cell-based; conditions: 3 hours treatment
Method in brief: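 TF 1 cells in unsupplemented IMDM treated with compound concentrations for 3 h, then lysed. CUL3 neddylation detected by AlphaLISA (biotinylated anti-NEDD8, anti-CUL3 acceptor beads overnight, streptavidin donor beads 1 h); normalized to vehicle (0%) and 1 μM DI-1548 (100%), IC50 from Hill fits.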

[3] = molecular target: DCN1 (DCUND1) protein PONY domain (Homo sapiens (Human), UniProt Q96GG9); experiment: TR-FRET assay, DCN1 binding with FAM-labeled probe
Chain of DCN1 (DCUND1) protein PONY domain (Q96GG9 60-248): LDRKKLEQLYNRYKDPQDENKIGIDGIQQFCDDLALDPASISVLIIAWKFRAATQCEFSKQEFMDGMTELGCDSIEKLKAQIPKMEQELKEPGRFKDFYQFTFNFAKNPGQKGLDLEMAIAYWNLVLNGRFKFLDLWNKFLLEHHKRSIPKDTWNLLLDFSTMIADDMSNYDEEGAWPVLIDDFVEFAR
Method in brief: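 First, the E. coli-derived PONY domain was biotinylated and paired with streptavidin Tb cryptate. Compounds in 0.1% DMSO were then added to DCN1 and FAM-probe (5 nM/20 nM, or 0.31 nM/900 nM total with 800 nM unlabelled) in TritonX, 200 mM NaCl buffer. Finally, TR-FRET ratios were recorded at 1, 5 and 24 hrs.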

[4] = 24 hr after treatment with compound, read-out: TR FRET IC50 24 hr
[5] = TR FRET IC50 1 hr (nM), 1 hr after treatment with compound
[6] = read-out: TR FRET IC50 1 hr, 1 hr after treatment with compound

SMILES | EC50 ([1]; Homo sapiens, 240 h) [nM] | Nanostring Ymax obs (%) [1] | IC50 ([2]; Homo sapiens, TF-1, 3 h) [nM] | IC50 [3, 4] [nM] | IC50 [3, 5] [nM] | IC50 [3, 6] [nM] | EC50 [1] [nM] | IC50 [2] [nM]
C=C(CN(C)C1COC1)C(=O)NCc1nn(-c2ccccc2)c2c1[C@@H](c1ccc(F)cc1)[C@H](NC(=O)c1cccc(C(F)(F)F)c1)C(=O)N2CC (racemic) [Compound I-491] | ≤ 100 | ++ (Nanostring Ymax greater than 50.0 and less than or equal to 100.0) | ≤ 100 | ≤ 200 | 200 to 1000 | – | – | –
C=C(CN1CCC1)C(=O)NCc1nn(-c2ccccc2)c2c1[C@H](c1ccc(F)cc1)[C@H](NC(=O)c1cccc(C(F)(F)F)c1)C(=O)N2CC [Compound I-2] | – | ++ (Nanostring Ymax greater than 50.0 and less than or equal to 100.0) | ≤ 100 | ≤ 200 | – | ≤ 200 | – | –
CCN1C(=O)[C@@H](NC(=O)c2cccc(C(F)(F)F)c2)[C@@H](c2ccc(F)cc2)c2c(CN(C#N)CCCN(C)C)nn(-c3ccccc3)c21 [Compound I-247, ˜{N}-[(4˜{S},5˜{S})-3-[[cyano-[3-(dimethylamino)propyl]amino]methyl]-7-ethyl-4-(4-fluorophenyl)-6-oxo-1-phenyl-4,5-dihydropyrazolo[3,4-b]pyridine-5-yl]-3-(trifluoromethyl)benzamide] | > 1000 | ++ (Nanostring Ymax greater than 50.0 and less than or equal to 100.0) | ≤ 100 | ≤ 200 | – | ≤ 200 | – | –
CCN1C(=O)[C@@H](NC(=O)c2cccc(C(F)(F)F)c2)[C@@H](c2ccc(F)cc2)c2c(CN(C#N)CCCCN(C)C)nn(-c3ccccc3)c21 [Compound I-248, ˜{N}-[(4˜{S},5˜{S})-3-[[cyano-[4-(dimethylamino)butyl]amino]methyl]-7-ethyl-4-(4-fluorophenyl)-6-oxo-1-phenyl-4,5-dihydropyrazolo[3,4-b]pyridine-5-yl]-3-(trifluoromethyl)benzamide] | – | ++ (Nanostring Ymax greater than 50.0 and less than or equal to 100.0) | ≤ 100 | ≤ 200 | 200 to 1000 | – | – | –
CCN1C(=O)[C@@H](NC(=O)c2cccc(C(F)(F)F)c2)[C@@H](c2ccc(F)cc2)c2c(C(=O)N[C@@H](C)C#N)nn(-c3ccccc3)c21 [Compound I-254, (4S,5S)—N—((S)-1-cyanoethyl)-7-ethyl-4-(4-fluorophenyl)-6-oxo-1-phenyl-5-(3-(trifluoromethyl)benzamido)-4,5,6,7-tetrahydro-1H-pyrazolo[3,4-b]pyridine-3-carboxamide] | > 1000 | ++ (Nanostring Ymax greater than 50.0 and less than or equal to 100.0) | ≤ 100 | ≤ 200 | 200 to 1000 | – | – | –
CCN1C(=O)[C@@H](NC(=O)c2cccc(C(F)(F)F)c2)[C@@H](c2ccc(F)cc2)c2c([C@@H](CCCO)NC#N)nn(-c3ccccc3)c21 [Compound I-399] | 100 to 1000 | ++ (Nanostring Ymax greater than 50.0 and less than or equal to 100.0) | ≤ 100 | ≤ 200 | – | ≤ 200 | – | –
C=C(CN1CC2(CCO2)C1)C(=O)NCc1nn(-c2ccccc2)c2c1[C@H](c1ccc(F)cc1)[C@H](NC(=O)c1cccc(C(F)(F)F)c1)C(=O)N2CC [Compound I-407] | – | + (Nanostring Ymax greater than or equal to 0.0 and less than or equal to 50.0) | ≤ 100 | ≤ 200 | – | ≤ 200 | – | –
CCN1C(=O)[C@@H](NC(=O)c2cccc(C(F)(F)F)c2)[C@@H](c2ccc(F)cc2)c2c([C@H](NC#N)C(F)F)nn(-c3ccccc3)c21 [Compound I-411] | 100 to 1000 | ++ (Nanostring Ymax greater than 50.0 and less than or equal to 100.0) | ≤ 100 | ≤ 200 | – | ≤ 200 | – | –
C=C(CN1CC(O)C1)C(=O)NCc1nn(-c2ccccc2)c2c1[C@H](c1ccc(F)cc1)[C@H](NC(=O)c1cccc(C(F)(F)F)c1)C(=O)N2CC [Compound I-459] | ≤ 100 | ++ (Nanostring Ymax greater than 50.0 and less than or equal to 100.0) | ≤ 100 | ≤ 200 | – | ≤ 200 | – | –
C=C(CN(C)CC1COC1)C(=O)NCc1nn(-c2ccccc2)c2c1[C@H](c1ccc(F)cc1)[C@H](NC(=O)c1cccc(C(F)(F)F)c1)C(=O)N2CC [Compound I-574] | ≤ 100 | ++ (Nanostring Ymax greater than 50.0 and less than or equal to 100.0) | ≤ 100 | ≤ 200 | – | ≤ 200 | – | –
C=C(CN1CCCC1)C(=O)NCc1nn(-c2ccccc2)c2c1[C@H](c1ccc(F)cc1)[C@H](NC(=O)c1cccc(C(F)(F)F)c1)C(=O)N2CC [Compound I-612] | – | ++ (Nanostring Ymax greater than 50.0 and less than or equal to 100.0) | ≤ 100 | ≤ 200 | – | ≤ 200 | – | –
CCN1C(=O)[C@H](NC(=O)c2cccc(C(F)(F)F)c2)[C@@H](c2ccc(F)cc2)c2c([C@@H](C)NC#N)nn(-c3ccccc3)c21 [Compound I-637] | – | + (Nanostring Ymax greater than or equal to 0.0 and less than or equal to 50.0) | > 1000 | 200 to 1000 | 1000 to 3000 | – | – | –
C=C(CN1CC(C)(O)C1)C(=O)NCc1nn(-c2ccccc2)c2c1[C@H](c1ccc(F)cc1)[C@H](NC(=O)c1cccc(C(F)(F)F)c1)C(=O)N2CC [Compound I-643] | ≤ 100 | ++ (Nanostring Ymax greater than 50.0 and less than or equal to 100.0) | ≤ 100 | ≤ 200 | – | ≤ 200 | – | –
C=C(CN1CCC12COC2)C(=O)NCc1nn(-c2ccccc2)c2c1[C@H](c1ccc(F)cc1)[C@H](NC(=O)c1cccc(C(F)(F)F)c1)C(=O)N2CC [Compound I-644] | > 1000 | ++ (Nanostring Ymax greater than 50.0 and less than or equal to 100.0) | ≤ 100 | ≤ 200 | – | ≤ 200 | – | –
C=C(CN1CC2(CCOC2)C1)C(=O)NCc1nn(-c2ccccc2)c2c1[C@H](c1ccc(F)cc1)[C@H](NC(=O)c1cccc(C(F)(F)F)c1)C(=O)N2CC [Compound I-677] | – | +++ (Nanostring Ymax greater than 100.0) | ≤ 100 | ≤ 200 | – | ≤ 200 | – | –
COC(=O)/C=C/CN(C)Cc1nn(-c2ccccc2)c2c1[C@H](c1ccc(F)cc1)[C@H](NC(=O)c1cccc(C(F)(F)F)c1)C(=O)N2CC(C)C [I-266] | – | + (Nanostring Ymax greater than or equal to 0.0 and less than or equal to 50.0) | – | 200 to 1000 | – | 200 to 1000 | > 1000 | 100 to 1000
